Values quoted from earlier work, collected in article PMC7238799 (Pulmonary Circulation, 2020).
Where two headings read alike, the source gives them in different places.

How the values were obtained:
[1] = cited from earlier work; for Steady-state PTR / Half-life: oral
[2] = tested on: healthy male subjects; conditions: from 400 µg BID up to 1600–1800 µg BID; cited from earlier work
[3] = tested on: prostacyclin (IP) receptor; conditions: cited from earlier work
[4] = BID oral administration of selexipag

## CCCCC[C@H](O)CC[C@@H]1[C@H]2Cc3cccc(OCC(=O)O)c3C[C@H]2C[C@H]1O [treprostinil]
[1]; BID dosing
  Steady-state PTR: 7.0
[1]; TID dosing
  Steady-state PTR: 2.5
[1]; administered two or three times daily
  Half-life: 3 to 4 h

## CC(C)N(CCCCOCC(=O)NS(C)(=O)=O)c1cnc(-c2ccccc2)c(-c2ccccc2)n1 [selexipag]
[2]
  Treated subjects achieving full dose escalation: 67–81%

## CC#CCC(C)[C@H](O)/C=C/[C@@H]1[C@H]2C/C(=C/CCCC(=O)O)C[C@H]2C[C@H]1O (stereo partly shown) [iloprost]
[3]
  Maximal cAMP stimulation (efficacy percentage relative to iloprost): 100%
  Type of IP receptor agonism: full agonist

## CC(C)N(CCCCOCC(=O)O)c1cnc(-c2ccccc2)c(-c2ccccc2)n1 [ACT-333679]
[3]
  Maximal cAMP stimulation (efficacy percentage relative to iloprost): 48%
  Type of IP receptor agonism: weak partial agonist
[1]; [4]
  Accumulation at steady-state: 1.02–1.27 fold
  Mean steady-state PTR: 5.6–6.5
[1]; active metabolite of selexipag
  Effective half-life (EHL): 3 to 4 h
  Terminal elimination half-life: 6.2 to 13.5 h

## CC#CCC(C)[C@H](O)/C=C/[C@@H]1[C@H]2c3cccc(CCCC(=O)O)c3O[C@H]2C[C@H]1O (mixture of isomers) [beraprost]
[1]; administered four times daily
  Half-life: 0.75 h
